Data on one substance can be found in patent US11717536B2, “Treatment for periodontitis” (THE UNIVERSITY OF MELBOURNE, priority 2017, dated 2023).

The subject of assay [1] is supragingival plaque. The assay is described as follows: Clinical trial: microbial composition of supragingival plaque (16S rRNA gene sequencing), whole community. The class given is in vivo, human. From the text:
Following the completion of the examination and supragingival plaque collection, participants received a supragingival scaling, clean and prophylaxis of all their teeth. At the completion of the last examination for leg 3, each participant received a professional fluoride treatment.
Participants had all supragingival plaque collected from the buccal surfaces of their maxillary molars (teeth 17, 16, 26 & 27) with a sterile scaling instrument. The plaque samples from each tooth were placed in separate sterile tubes, to give four samples per participant.
Genomic DNA was extracted from the plaque using a combination of mechanical disruption of the cells via a Precellys homogeniser and the chemical extraction and purification of the genomic DNA via the PowerLyzer PowerSoil DNA Isolation Kit (MoBio). Quantitation of the extracted DNA was achieved using a Qubit dsDNA High Sensitivity Assay kit (ThermoFisher), before 5 ng DNA was used as template in a PCR reaction that amplified the V4 variable region of the 16S ribosomal RNA gene and individually barcoded the PCR product from each sample. The barcoded DNA was then sequenced using an Ion Torrent Personal Genome machine and Torrent Suite™ Software (ThermoFisher).
Analysis of the resulting sequence of the 16S ribosomal RNA gene enabled identification of the bacterial population present in each sample, down to the species level. […]
The individual 16S rDNA sequences produced for each sample were used to both classify the microbial lineages present (grouped as species level taxa) and determine the abundances of each taxon. Differences in the bacterial community over time was determined by measuring the changes in the relative taxon abundances for each individual.

The subject of assay [2] is Actinomyces naeslundii (NCTC 10301). Briefly: Six species polymicrobial biofilm in constant-depth film fermenter, species composition: A. naeslundii. The class given is cell-based. The following applies: 19 days; mean ± standard deviation; n = 5-21. As for the experimental part:
(§1) To model supragingival plaque six representative oral bacterial species, Streptococcus sanguinis (NCTC 7863), Streptococcus mutans Ingbritt, Actinomyces naeslundii (NCTC 10301), Veillonella parvula (ATCC 17745), Lactobacillus casei (NCDO 161) and Fusobacterium nucleatum (ATCC 10953) (Table 5) were cultured as a polymicrobial biofilm on a human enamel substratum in a constant-depth film fermenter (CDFF; Cardiff University, UK). The CDFF was housed in a 37° C. incubator under anaerobic conditions which were maintained by a constant flow of 5% CO2 in N2 at 1 L/h. The CDFF contained 15 removable polytetrafluoroethylene (PTFE) pans on a circular platform that was rotated at a constant speed of three rpm. The biofilms were grown on three enamel blocks (see below) in each PTFE pan using an artificial saliva medium (ASM, 2.5 g/L mucin type II (porcine, gastric, Sigma), 2.0 g/L bacteriological peptone (Oxoid), 2.0 g/L tryptone (Oxoid), 1.0 g/L yeast extract (Oxoid), 0.35 g/L NaCl, 0.2 g/L KCl, 0.2 mg/L vitamin K, 1 mg/L haemin and 0.1 g/L cysteine hydrochloride) at a constant flow rate of 30 mL/h. Prior to inoculation, the CDFF pan surfaces were conditioned for 24 h with ASM at a flow rate of 10 mL/h (McBain et al (2003) J Appl Microbiol. 94(4):655-66). In order to mimic in vivo bacterial growth conditions in the oral cavity with dietary sugar intake and to provide a high cariogenic challenge, a 1% (w/v) sucrose solution in ASM was pumped into the CDFF four times a day at four hourly intervals with a flow rate of 30 mL/h for 10 min.
Three treatments were applied to the polymicrobial biofilms: 290 ppm fluoride with 220 ppm fluoride as SnF2 and 70 ppm fluoride as NaF (referred to as SnF2), 2% CPP-ACP and 2% CPP-ACP-SnF2. […]
For each timepoint, DNA was extracted separately from 8-9 enamel blocks using PowerLyzer® PowerSoil® DNA Isolation Kits (MoBio Laboratories) following the manufacturers “Vacuum Protocol” with a Precellys® bead homogeniser (Bertin Technologies). Samples were quantified using a Qubit™ dsDNA HS assay kit (Life Technologies) before being stored at −80° C. […]

The subject of assay [3] is Fusobacterium nucleatum (ATCC 10953). The assay is described as follows: Six species polymicrobial biofilm in constant-depth film fermenter, species composition: F. nucleatum. The class given is cell-based. As for the experimental part: as §1
Three treatments were applied to the polymicrobial biofilms: 290 ppm fluoride with 220 ppm fluoride as SnF2 and 70 ppm fluoride as NaF (referred to as SnF2), 2% CPP-ACP and 2% CPP-ACP-SnF2. These treatments were compared with the control in which the test solution was replaced with ASM. Each treatment was applied using two 10 min pulses of the test solution in ASM with a flow rate of 30 mL/h. The first pulse started 30 min prior to the first sucrose pulse of the morning and the second started 3 h 30 min after the final sucrose pulse of the day.
On day 6, 12 and 19 after inoculation four pans were removed aseptically from the CDFF and replaced with blank sterile pans. Enamel blocks from the pans were removed for bacterial enumeration and transverse microradiography.
Planktonic and loosely attached bacterial cells were firstly removed from the enamel blocks by light washing with 100 μL ASM. To harvest the biofilm cells on each block, the surface was scraped with a sterile scraper with 1 mL of ASM. The biofilm bacterial cells were sedimented by centrifugation (10,000 g, 10 min), the supernatant carefully decanted and the cell pellets stored at −80° C. until required for DNA extraction. The enamel blocks were then used for sectioning and microradiography.
For each timepoint, DNA was extracted separately from 8-9 enamel blocks using PowerLyzer® PowerSoil® DNA Isolation Kits (MoBio Laboratories) following the manufacturers “Vacuum Protocol” with a Precellys® bead homogeniser (Bertin Technologies). Samples were quantified using a Qubit™ dsDNA HS assay kit (Life Technologies) before being stored at −80° C.
The Ion Amplicon Library Preparation Fusion Method (Thermo Fisher Scientific), was adapted for amplification of the V4 region of the 16S rRNA gene. […]

Assay [4] concerns supragingival plaque. Briefly: Clinical trial: plaque index (Turesky modification of the Quigley-Hein Index). The class given is in vivo, human. The following applies: CPP-ACP gum (18.8 or 56.4 mg), 14 days, vs no gum chewing; FIG. 1. On the procedure: Following the completion of the examination and supragingival plaque collection, participants received a supragingival scaling, clean and prophylaxis of all their teeth. At the completion of the last examination for leg 3, each participant received a professional fluoride treatment. Supragingival plaque was assessed using the Turesky modification of the Quigley-Hein Index (Turesky et al 1970 J Periodontol 41(1):41-43). This index is recognised as a reliable estimate of the tooth area covered by plaque and is frequently used for evaluating anti-plaque agents. The plaque index was obtained by adding the scores for each tooth and dividing by the number of surfaces examined. Plaque scores associated with unrestored labial, buccal and lingual surfaces of all teeth, except third molars were assessed. Each surface was assigned a score from 0 to 5.

Entries after “also recorded” stand apart in the source; their conditions may differ. Marks after values point to notes of the source that are not given here.

With “Casein phosphopeptide-amorphous calcium phosphate [CPP-ACP]”, the “increases in commensal/beneficial species at the 56.4 mg dose compared with the 18.8 mg dose” value in the assay with supragingival plaque [1] (56.4 mg CPP-ACP gum, 20 min six times per day, 14 days) is “significantly greater”. The “proportion of pathogenic species (pathobionts)” value with supragingival plaque [1] (CPP-ACP gum, 14 days, vs no treatment) is “concomitant reduction”. The “proportion of the health-associated symbionts” value in the assay on supragingival plaque [1] (CPP-ACP treatment, randomised controlled clinical study) is “significant increase”. In assay [2], the “A. naeslundii as a percentage of total bacteria in the biofilm” value is listed as 11.93 ± 2.34^b %. In addition, the “F. nucleatum as a percentage of total bacteria in the biofilm” value in assay [3] (19 days, mean ± standard deviation, n = 5-21) is reported as 2.43 ± 1.21^ace %. Besides, the “change in abundance of F. nucleatum after treatment relative to the control (increase)” value in assay [3] (day 19, FIG. 5B) worked out at 355%. Further, the “change in abundance of F. nucleatum relative to the control (in words)” value in assay [3] (twice daily treatment, day 19) is given as “significantly increased; also recorded: reproducible increases”. Moreover, the plaque index result in the assay on supragingival plaque [4] is given as “did not produce a significant change”.
